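A five-concentration, 48-hour dose response in 96-well plates underlies each endpoint, interpolated linearly between surrounding concentrations. TGI: concentration producing complete growth inhibition.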
Assays:
Experiment in all cases: growth of human tumour cells (NCI), 48 h
IGROV1 ovarian = tested on: IGROV1 ovarian
HCC-2998 colon = tested on: HCC-2998 colon
T-47D breast = tested on: T-47D breast
SW-620 colon = tested on: SW-620 colon
OVCAR-3 ovarian = tested on: OVCAR-3 ovarian
PC-3 prostate = tested on: PC-3 prostate
UACC-257 melanoma = tested on: UACC-257 melanoma
MCF7 breast = tested on: MCF7 breast
DU-145 prostate = tested on: DU-145 prostate
A549 NSCLC = tested on: A549 NSCLC
HS 578T breast = tested on: HS 578T breast
ACHN renal = tested on: ACHN renal
NCI-H23 lung = tested on: NCI-H23 lung
HCT-116 colon = tested on: HCT-116 colon
SK-MEL-5 melanoma = tested on: SK-MEL-5 melanoma
LOX IMVI melanoma = tested on: LOX IMVI melanoma
HOP-92 NSCLC = tested on: HOP-92 NSCLC

Row | Compound | TGI (IGROV1 ovarian) [µM] | TGI (HCC-2998 colon) [µM] | TGI (T-47D breast) [µM] | TGI (SW-620 colon) [µM] | TGI (OVCAR-3 ovarian) [µM] | TGI (PC-3 prostate) [µM] | TGI (UACC-257 melanoma) [µM] | TGI (MCF7 breast) [µM] | TGI (DU-145 prostate) [µM] | TGI (A549 NSCLC) [µM] | TGI (HS 578T breast) [µM] | TGI (ACHN renal) [µM] | TGI (NCI-H23 lung) [µM] | TGI (HCT-116 colon) [µM] | TGI (SK-MEL-5 melanoma) [µM] | TGI (LOX IMVI melanoma) [µM] | TGI (HOP-92 NSCLC) [µM]
1 | Clc1nc2n(c1/C=C/c1cccs1)CCS2 | > 100 | > 100 | 69.3 | > 100 | 87.9 | > 100 | > 100 | > 100 | > 100 | > 100 | > 100 | > 100 | > 100 | > 100 | 32.9 | – | –
2 | CCCCCCCN1C(=O)C(O)(c2ccc(C3(O)C(=O)N(CCCCCCC)c4ccccc43)s2)c2ccccc21 (centres undefined) | 4.28 | 3.44 | 15 | 4.55 | – | 3.8 | 4.42 | 5.7 | 3.29 | – | 5.31 | 4.92 | – | 3.18 | 3.26 | 3.51 | 3.55
3 | O=C(Nc1ccccc1F)c1cc2ccc(O)cc2oc1=Nc1cccc(C(F)(F)F)c1 | 5.54 | > 100 | 15.8 | > 100 | > 100 | > 100 | > 100 | > 100 | > 100 | > 100 | 7.75 | 19.4 | 4.44 | 18.1 | 4.91 | 6.52 | –
4 | COc1c(O)c2c(=O)cc(OC)c3c4c(OC)cc(=O)c5c(O)c(OC)c6c(c(c1C(C(C)=O)C6C(C)O)c23)c54 (centres undefined) | 1 | 1.06 | 1.64 | 0.469 | 0.442 | 0.971 | 1.39 | 1.54 | 1.74 | 3.06 | 1.81 | 1.09 | 1.33 | 3.06 | – | 0.32 | 1.4
5 | CC1OC(OC2C(O)COC(OC3C(C)OC(OC4C(OC(=O)[C@]56CCC(C)(C)C[C@@H]5C5=CCC7[C@@]8(C)C[C@H](O)[C@H](OC9OC(CO)C(O)C(OC%10OC(CO)C(O)C(O)C%10O)C9O)[C@@](C)(CO)[C@@H]8CC[C@@]7(C)[C@]5(C)CC6)OCC(O)C4O)C(O)C3O)C2O)C(O)C(O)C1O (some centres undefined) | – | 32.9 | 35.5 | 30.4 | 29.4 | 23.9 | 35.6 | 36.1 | 29 | 28.6 | 40.9 | 34.5 | 31 | 32.7 | 30.3 | 35 | 38.4
6 | NC(N)=NCCCC(NC(=O)OCCCCCCn1ccc(N)nc1=O)C(=O)O (centres undefined) | > 100 | > 100 | > 100 | > 100 | > 100 | > 100 | > 100 | > 100 | > 100 | > 100 | > 100 | > 100 | > 100 | > 100 | – | > 100 | > 100
7 | Cc1c(C)c2c(c(N)c1C#N)C(=O)N(CCN1CCNCC1)C2=O | > 100 | > 100 | > 100 | > 100 | > 100 | > 100 | > 100 | > 100 | > 100 | > 100 | > 100 | > 100 | – | 52.2 | – | 47.9 | > 100
8 | OC1CN2Cc3cc4c(cc3[C@]13C=C[C@@H](O)CC23)OCO4 (some centres undefined) | > 100 | – | 31.2 | > 100 | > 100 | > 100 | 34.9 | > 100 | 71.9 | > 100 | > 100 | > 100 | > 100 | > 100 | > 100 | > 100 | 86.8
9 | NC(=O)NC(=O)c1cccc(NC(=O)CBr)c1 | 0.368 | – | 3.7 | 3.3 | 0.024 | 1.49 | 0.623 | 1.61 | 0.336 | 7.6 | < 0.0505 | 1.4 | 1.54 | < 0.01 | < 0.0184 | 0.193 | 1.75
10 | COc1cc(/C=C/c2cc(/C=C/c3ccc(O)c(OC)c3)oc(=O)c2)ccc1O | 19.9 | – | 4.86 | > 24.5 | 5.68 | 20.3 | > 29.6 | > 100 | 6.82 | > 100 | > 85.3 | 15.4 | > 24.7 | > 65.8 | > 100 | 15.7 | 32.6
11 | O=C1/C(=C/c2ccco2)N=C(c2ccccc2)N1c1cc2cc(Sc3ccccc3)ccc2[nH]1 | > 25 | – | > 25 | > 25 | – | > 25 | – | > 25 | > 25 | > 25 | > 25 | > 25 | > 25 | > 25 | – | > 25 | > 25

— PubChem BioAssay (NCI)
